The assay concerns apomorphine-induced vomiting in dogs. The experiment in a line: Apomorphine-induced vomiting test in dogs (antiemetic activity, subcutaneous). Type of assay: in vivo, beagle dogs. The note with it: Canis lupus familiaris, sc.
Setting [1] is: beagle dogs, apomorphine 0.31 mg/kg s.c. 1 hour after compound, read-out: ED50 (dose which protects 50% of the animals from emesis), Table IV.
Setting [2] is: 1 h, read-out: ED50 (dose which protects 50% of the animals from emesis), Table I.
Where [3] appears, read: 1 h, read-out: ED50 (dose which protects 50% of the animals from emesis), Table III.

The values below come from patent publication US4066772A, “1,3-Dihydro-1-[3-(1-piperidinyl)propyl]-2H-benzimidazol-2-ones and related compounds” (Janssen Pharmaceutica N.V., priority 1976, dated 1978).

As a reminder, the ED50 is the midpoint of the dose-response relation.

Read-outs that look alike come from different tables or passages of the source.

Regarding `O=C1NCN(c2ccccc2)C12CCN(CCCn1cnc3ccccc31)CC2`, under “1 h, read-out: ED50 (dose which protects 50% of the animals from emesis), Table IV”, the ED50 turned out to be 0.25 mg/kg.

Turning to `O=c1[nH]c2cc(Cl)ccc2n1C1CCN(CCCn2c(=S)[nH]c3ccccc32)CC1`, the ED50 under setting [1] came out at 0.004 mg/kg.

Turning to `O=c1[nH]c2ccccc2n1CCCN1CCC(n2c(=S)[nH]c3ccccc32)CC1`, under setting [1], the ED50 was found to be 0.025 mg/kg.

Consider `O=c1[nH]c2ccccc2n1CCCN1CCC(n2c(=S)[nH]c3cc(Cl)ccc32)CC1`, for which the ED50 under setting [1] worked out at 0.004 mg/kg.

With `O=c1[nH]c2ccccc2n1CCCN1CCC(n2c(=O)[nH]c3cc(Cl)ccc32)CC1` [5-chloro-1-{1-[3-(1,3-dihydro-2-oxo-2H-benzimidazol-1-yl)propyl]-4-piperidinyl}-1,3-dihydro-2H-benzimidazol-2-one], the ED50 (1 h, read-out: ED50 (dose which protects 50% of the animals from emesis), Table II) stood at 0.01 mg/kg.

As for `C=CCn1c(=O)n(CCCN2CCC3(CC2)C(=O)NCN3c2ccccc2)c2ccccc21` [L=CH2CHCH2, R1=H, R4=H, R5=H, 8-{3-[1,3-dihydro-2-oxo-3-(2-propenyl)-2H-benzimidazol-1-yl]propyl}-1-phenyl-1,3,8-triazaspiro[4,5]decan-4-one], the ED50 under setting [2] was 0.25 mg/kg.

As for `C=CCn1c(=O)n(CCCN2CCC(O)(c3ccc(Cl)cc3)CC2)c2ccccc21` [L=CH2CHCH2, R8=4-Cl, R9=H, 1-{3-[4-(4-chlorophenyl) 4-hydroxy-1-piperidinyl]propyl}-1,3-dihydro-3-(2-propenyl)-2-H-benzimidazol-2-one], the ED50 under setting [3] came to 0.5 mg/kg.

As to `Cn1c(=O)n(CCCN2CCC3(CC2)C(=O)NCN3c2ccccc2)c2ccccc21` [L=CH3, R1=H, R4=H, R5=H, 8-[3-(1,3-dihydro-3-methyl-2-oxo-2H-benzimidazol-1-yl)propyl]-1-phenyl-1,3,8-triazaspiro[4,5]-decan-4-one], under setting [2], the ED50 amounted to 0.08 mg/kg.

With `Cc1ccc2c(c1)[nH]c(=O)n2CCCN1CCC2(CC1)C(=O)NCN2c1ccccc1` [L=H, R1=5-CH3, R4=H, R5=H, 8-[3-(1,3-dihydro-5-methyl-2-oxo-2H-benzimidazol-1-yl)propyl]-1-phenyl-1,3,8-triazaspiro[4,5]decan-4-one], the ED50 under setting [2] came out at 0.06 mg/kg.

Take `O=C1NCN(c2ccc(F)cc2)C12CCN(CCCn1c(=O)[nH]c3cc(Cl)ccc31)CC2` [L=H, R1=5-Cl, R4=H, R5=4-F, 8-[3-(5-chloro-1,3-dihydro-2-oxo-2H-benzimidazol-1-yl)propyl]-1-(4-fluorophenyl)-1,3,8-triazaspiro[4,5]decan-4-one]: under setting [2], the ED50 is 0.015 mg/kg.

Take `O=C1NCN(c2ccccc2)C12CCN(CCCn1c(=O)[nH]c3cc(Cl)ccc31)CC2` [L=H, R1=5-Cl, R4=H, R5=H, 8-[3-(5-chloro-1,3-dihydro-2-oxo-2H-benzimidazol-1-yl)propyl]-1-phenyl-1,3,8-triazaspiro[4,5]decan-4-one]: the ED50 under setting [2] worked out at 0.05 mg/kg.

Turning to `O=c1[nH]c2ccccc2n1CCCN1CC=C(n2c(=O)[nH]c3ccccc32)CC1` [L=H, R1=H, R2=H, R3=H, ring drawing 47, R7=H, 1-{3-[3,6-dihydro-4-(1,3-dihydro-2-oxo-2H-benzimidazol-1-yl)-1-(2H)-pyridinyl]propyl}-1,3-dihydro-2H-benzimidazol-2-one], the ED50 (beagle dogs, apomorphine 0.31 mg/kg s.c. 1 hour after compound, read-out: ED50 (dose which protects 50% of the animals from emesis), Table II) amounted to 0.04 mg/kg.

For the compound `CN1CN(c2ccccc2)C2(CCN(CCCn3c(=O)[nH]c4ccccc43)CC2)C1=O` [L=H, R1=H, R4=CH3, R5=H, 8-[3-(1,3-dihydro-2-oxo-2H-benzimidazol-1-yl)propyl]-3-methyl-1-phenyl-1,3,8-triazaspiro[4,5]decan-4-one], the ED50 under setting [2] stood at 0.015 mg/kg.

As for `O=C1NCN(c2cccc(C(F)(F)F)c2)C12CCN(CCCn1c(=O)[nH]c3ccccc31)CC2` [L=H, R1=H, R4=H, R5=3-CF3, 8-[3-(2,3-dihydro-2-oxo-1H-benzimidazol-1-yl)propyl]-1-[3-(trifluoromethyl)phenyl]-1,3,8-triazaspiro[4,5]decan-4-one], under setting [2], the ED50 was determined as 0.025 mg/kg.

For `O=C1NCN(c2ccc(F)cc2)C12CCN(CCCn1c(=O)[nH]c3ccccc31)CC2` [L=H, R1=H, R4=H, R5=4-F], under setting [2], the ED50 worked out at 0.04 mg/kg.

Regarding `O=C1NCN(c2ccccc2)C12CCN(CCCn1c(=O)[nH]c3ccccc31)CC2` [L=H, R1=H, R4=H, R5=H, 8-[3-(1,3-dihydro-2-oxo-2H-benzimidazol-1-yl)propyl]-1-phenyl-1,3,8-triazaspiro[4,5]decan-4-one], the ED50 under setting [2] was 0.03 mg/kg.

Turning to `O=c1[nH]c2ccccc2n1CCCN1CCC(O)(c2ccc(Cl)c(C(F)(F)F)c2)CC1` [L=H, R8=4-Cl, R9=3-CF3, 1-[3-{4-[4-chloro-3-(trifluoromethyl)phenyl]-4-hydroxy-1-piperidinyl}propyl]-1,3-dihydro-2H-benzimidazol-2-one], the ED50 under setting [3] was 0.015 mg/kg.

As to `O=c1[nH]c2ccccc2n1CCCN1CCC(O)(c2ccc(Cl)cc2)CC1` [L=H, R8=4-Cl, R9=H, 1-{3-[4-(4-chlorophenyl)-4-hydroxy-1-piperidinyl]-propyl}-1,3-dihydro-2H-benzimidazol-2-one], the ED50 under setting [3] is 0.06 mg/kg.
